In patent US20050107289A1, “Anti-microbial peptides and compositions” (priority 2001, published 2005):
Non-standard residues stand in square brackets, D forms with d. Residues, ends and D or L forms follow the SMILES beside them.

Legend:
[1] = trypsin, α-chymotrypsin, subtilisin, blood plasma; RP-HPLC over 24 h
Method: Cyclic peptides having SEQ ID NO:13, 18, 26, and 29 were assayed for proteolytic susceptibility.

E. coli JM109 (DE3) = experiment: Time-killing curve, E. coli; assay type: cell-based, Escherichia coli; conditions: FIG. 8b; at MIC concentrations
Method: (§1) The speed at which several of the cyclic peptides of the invention kill E. coli JM 109 (DE3), Enterococcus faecium SP 180 and S. aureus (MRSA) (ATCC No. 33591 and 33592) was further tested at room temperature and/or at 37° C. A lower temperature tends to enrich the bacterial cultures for mature bacteria because the bacteria are not growing quickly. […] The presence or absence of immature bacteria in the culture may influence the rate at which the bacteria are killed, because immature bacteria tend to be more susceptible to many forms of antibiotics.
In FIG. 8b, the log of the number of E. coli colony forming units (cfu) per ml of culture is plotted versus time treated with cyclo[KRKWLWLW] (closed triangles), cyclo[KQRWLWLW] (closed circles), cyclo[KHLWLW] (closed squares), and cyclo[KKWLW] (open squares) at MIC concentrations. […] Cyclic peptide cyclo[KHKLWLW] kills effectively all E. coli within about 90 minutes. Cyclic peptides cyclo[KRKWLWLW] and cyclo[KKWLW] kill effectively all of the E. coli within about 130 minutes. […] Nonetheless, these cyclic peptides kill both types of bacteria very quickly.

[2] = tested on: S. aureus (MRSA) (ATCC No. 33591); experiment: Time-killing curve, S. aureus MRSA ATCC 33591; assay type: cell-based, Staphylococcus aureus; conditions: FIG. 8a; at MIC concentrations
Method: as §1
To generate the data shown in FIG. 8a, the log of the number of colony forming units (cfu) per ml of culture was determined as a function of time after treatment of S. aureus (MRSA) (ATCC No. 33591) with cyclo[KHLWLW] (closed circles), cyclo[KRKWLWLW] (closed triangles), and cyclo[KQRWLWLW] (open squares) at MIC concentrations. […] The reduction in cfu count was greater than 3 log units. Cyclic peptide cyclo[KHLWLW] killed effectively all S. aureus (MRSA) within about 60 minutes.

Compound	proteolytic stability [1]	time to kill effectively all E. coli (E. coli JM109 (DE3))	time to kill effectively all S. aureus (MRSA) [2]
CC(C)C[C@H]1NC(=O)[C@H](Cc2c[nH]c3ccccc23)NC(=O)[C@@H](CCCCN)NC(=O)[C@H](CCCNC(=N)N)NC(=O)[C@@H](CCCNC(=N)N)NC(=O)[C@H](Cc2c[nH]c3ccccc23)NC(=O)[C@@H](CC(C)C)NC(=O)[C@H](Cc2c[nH]c3ccccc23)NC1=O [SEQ ID NO:18, cyclo-(D-Arg-Arg-D-Lys-Trp-D-Leu-Trp-D-Leu-Trp)] (cyclo([dR]R[dK]W[dL]W[dL]W))	stable		
CC(C)C[C@H]1NC(=O)[C@H](Cc2c[nH]c3ccccc23)NC(=O)[C@@H](CCCNC(=N)N)NC(=O)[C@H](CCC(N)=O)NC(=O)[C@@H](CCCCN)NC(=O)[C@H](Cc2c[nH]c3ccccc23)NC(=O)[C@@H](CC(C)C)NC(=O)[C@H](Cc2c[nH]c3ccccc23)NC1=O [SEQ ID NO:8, cyclo-(D-Lys-Gln-D-Arg-Trp-D-Leu-Trp-D-Leu-Trp)] (cyclo([dK]Q[dR]W[dL]W[dL]W))		within about thirty minutes	within about five minutes
